In ChEMBL document CHEMBL1287680, “C-11 diamino cryptolepine derivatives NSC748392, NSC748393, and NSC748394: anticancer profile and G-quadruplex stabilization” (Bioorg Med Chem Lett, 2010):

Experiments:
BT-549 = experiment: cells; conditions: Homo sapiens; for GI50: BT-549, read-out: pGI50 (converted); for CC50: BT-549, read-out: pLC50 (converted); for TGI: BT-549, read-out: pTGI
Description: Anticancer activity against human BT549 cells

UACC-62 = experiment: cells; conditions: Homo sapiens; for GI50: UACC-62, read-out: pGI50 (converted); for CC50: UACC-62, read-out: pLC50 (converted); for TGI: UACC-62, read-out: pTGI
Description: Anticancer activity against human UACC62 cells

NCI-H322M = experiment: cells; conditions: Homo sapiens; for GI50: read-out: pGI50 (converted); for CC50: read-out: pLC50 (converted); for TGI: read-out: pTGI
Description: Anticancer activity against human NCI-H322M cells

SR = experiment: cells; conditions: Homo sapiens; for GI50: read-out: pGI50 (converted); for CC50: read-out: pLC50 (converted); for TGI: read-out: pTGI
Description: Anticancer activity against human SR cells

Malme-3M = experiment: cells; conditions: Homo sapiens; for GI50: read-out: pGI50 (converted); for CC50: read-out: pLC50 (converted); for TGI: read-out: pTGI
Description: Anticancer activity against human MALME-3M cells

UACC-257 = experiment: cells; conditions: Homo sapiens; for GI50: UACC-257, read-out: pGI50 (converted); for CC50: UACC-257, read-out: pLC50 (converted); for TGI: UACC-257, read-out: pTGI
Description: Anticancer activity against human UACC257 cells

HCT-15 = experiment: cells; conditions: Homo sapiens; for GI50: HCT-15, read-out: pGI50 (converted); for CC50: HCT-15, read-out: pLC50 (converted); for TGI: HCT-15, read-out: pTGI
Description: Anticancer activity against human HCT15 cells

NCI-H23 = experiment: cells; conditions: Homo sapiens; for GI50: NCI-H23, read-out: pGI50 (converted); for CC50: NCI-H23, read-out: pLC50 (converted); for TGI: NCI-H23, read-out: pTGI
Description: Anticancer activity against human NCI-H23 cells

cells = conditions: Homo sapiens, Hs-578T; for GI50: read-out: pGI50 (converted); for CC50: read-out: pLC50 (converted); for TGI: read-out: pTGI
Description: Anticancer activity against human Hs 578T cells

U-251 = experiment: cells; conditions: Homo sapiens; for GI50: U-251, read-out: pGI50 (converted); for CC50: U-251, read-out: pLC50 (converted); for TGI: U-251, read-out: pTGI
Description: Anticancer activity against human U251 cells

NCI-H460 = experiment: cells; conditions: Homo sapiens; for GI50: NCI-H460, read-out: pGI50 (converted); for CC50: NCI-H460, read-out: pLC50 (converted); for TGI: NCI-H460, read-out: pTGI
Description: Anticancer activity against human NCI-H460 cells

SW-620 = experiment: cells; conditions: Homo sapiens; for GI50: SW-620, read-out: pGI50 (converted); for CC50: SW-620, read-out: pLC50 (converted); for TGI: SW-620, read-out: pTGI
Description: Anticancer activity against human SW620 cells

SK-MEL-5 = experiment: cells; conditions: Homo sapiens; for GI50: SK-MEL-5, read-out: pGI50 (converted); for CC50: SK-MEL-5, read-out: pLC50 (converted); for TGI: SK-MEL-5, read-out: pTGI
Description: Anticancer activity against human SK-MEL-5 cells

MDA-MB-231 = experiment: cells; conditions: Homo sapiens; for GI50: MDA-MB-231, read-out: pGI50 (converted); for CC50: MDA-MB-231, read-out: pLC50 (converted); for TGI: MDA-MB-231, read-out: pTGI
Description: Anticancer activity against human MDA-MB-231 cells

SF-295 = experiment: cells; conditions: Homo sapiens; for GI50: SF-295, read-out: pGI50 (converted); for CC50: SF-295, read-out: pLC50 (converted); for TGI: SF-295, read-out: pTGI
Description: Anticancer activity against human SF295 cells

A549 = experiment: cells; conditions: Homo sapiens; for GI50: A549, read-out: pGI50 (converted); for CC50: A549, read-out: pLC50 (converted); for TGI: A549, read-out: pTGI
Description: Anticancer activity against human A549 cells

PC-3 = experiment: cells; conditions: Homo sapiens; for GI50: PC-3, read-out: pGI50 (converted); for CC50: PC-3, read-out: pLC50 (converted); for TGI: PC-3, read-out: pTGI
Description: Anticancer activity against human PC3 cells

NCI-H522 = experiment: cells; conditions: Homo sapiens; for GI50: NCI-H522, read-out: pGI50 (converted); for CC50: NCI-H522, read-out: pLC50 (converted); for TGI: NCI-H522, read-out: pTGI
Description: Anticancer activity against human NCI-H522 cells

COLO 205 = experiment: cells; conditions: Homo sapiens; for GI50: COLO 205, read-out: pGI50 (converted); for CC50: COLO 205, read-out: pLC50 (converted); for TGI: COLO 205, read-out: pTGI
Description: Anticancer activity against human COLO205 cells

EKVX = experiment: cells; conditions: Homo sapiens; for GI50: read-out: pGI50 (converted); for CC50: read-out: pLC50 (converted); for TGI: read-out: pTGI
Description: Anticancer activity against human EKVX cells

SF-539 = experiment: cells; conditions: Homo sapiens; for GI50: SF-539, read-out: pGI50 (converted); for CC50: SF-539, read-out: pLC50 (converted); for TGI: SF-539, read-out: pTGI
Description: Anticancer activity against human SF539 cells

MDA-MB-468 = experiment: cells; conditions: Homo sapiens; for GI50: MDA-MB-468, read-out: pGI50 (converted); for CC50: MDA-MB-468, read-out: pLC50 (converted); for TGI: MDA-MB-468, read-out: pTGI
Description: Anticancer activity against human MDA-MB-468 cells

MOLT-4 = experiment: cells; conditions: Homo sapiens; for GI50: MOLT-4, read-out: pGI50 (converted); for CC50: MOLT-4, read-out: pLC50 (converted); for TGI: MOLT-4, read-out: pTGI
Description: Anticancer activity against human MOLT4 cells

A498 = experiment: cells; conditions: Homo sapiens; for GI50: A498, read-out: pGI50 (converted); for CC50: A498, read-out: pLC50 (converted); for TGI: A498, read-out: pTGI
Description: Anticancer activity against human A498 cells

LOX IMVI = experiment: cells; conditions: Homo sapiens; for GI50: read-out: pGI50 (converted); for CC50: read-out: pLC50 (converted); for TGI: read-out: pTGI
Description: Anticancer activity against human LOXIMVI cells

Nucleic Acid = conditions: Homo sapiens
Description: Binding affinity to human G-quadruplex DNA assessed as change in melting temperature by FRET-melting assay

CCRF-CEM = experiment: cells; conditions: Homo sapiens; for GI50: read-out: pGI50 (converted); for CC50: read-out: pLC50 (converted); for TGI: read-out: pTGI
Description: Anticancer activity against human CCRF-CEM cells

HOP-92 = experiment: cells; conditions: Homo sapiens; for GI50: HOP-92, read-out: pGI50 (converted); for CC50: HOP-92, read-out: pLC50 (converted); for TGI: HOP-92, read-out: pTGI
Description: Anticancer activity against human HOP92 cells

SNB-19 = experiment: cells; conditions: Homo sapiens; for GI50: SNB-19, read-out: pGI50 (converted); for CC50: SNB-19, read-out: pLC50 (converted); for TGI: SNB-19, read-out: pTGI
Description: Anticancer activity against human SNB19 cells

786-0 = experiment: cells; conditions: Homo sapiens; for GI50: 786-0, read-out: pGI50 (converted); for CC50: 786-0, read-out: pLC50 (converted); for TGI: 786-0, read-out: pTGI
Description: Anticancer activity against human 786-0 cells

T47D = experiment: cells; conditions: Homo sapiens; for GI50: read-out: pGI50 (converted); for CC50: read-out: pLC50 (converted); for TGI: read-out: pTGI
Description: Anticancer activity against human T47D cells

OVCAR-3 = experiment: cells; conditions: Homo sapiens; for GI50: OVCAR-3, read-out: pGI50 (converted); for CC50: OVCAR-3, read-out: pLC50 (converted); for TGI: OVCAR-3, read-out: pTGI
Description: Anticancer activity against human OVCAR-3 cells

in vivo = conditions: mouse, cancer cell lines
Description: Toxicity in cancer cells containing hollow fiber implanted mouse

## CCN(CC)CCCCNc1c2ccccc2[n+](C)c2c1[nH]c1ccccc12.[Cl-]
BT-549
  GI50: 1380 nM
  CC50: 7940 nM
  TGI: 3310 nM
UACC-62
  GI50: 83.2 nM
  CC50: 589 nM
  TGI: 234 nM
NCI-H322M
  GI50: 275 nM
  CC50: > 100000 nM
  TGI: 2750 nM
SR
  GI50: 372 nM
  CC50: > 100000 nM
  TGI: 42700 nM
Malme-3M
  GI50: 204 nM
  CC50: 2510 nM
  TGI: 646 nM
UACC-257
  GI50: 1550 nM
  CC50: > 100000 nM
  TGI: 5750 nM
HCT-15
  GI50: 11500 nM
  CC50: > 100000 nM
  TGI: 49000 nM
NCI-H23
  GI50: 191 nM
  CC50: 3470 nM
  TGI: 724 nM
cells
  GI50: 269 nM
  CC50: 93300 nM
  TGI: 955 nM
U-251
  GI50: 229 nM
  CC50: 24500 nM
  TGI: 1350 nM
NCI-H460
  GI50: 91.2 nM
  CC50: 52500 nM
  TGI: 1290 nM
SW-620
  GI50: 339 nM
  CC50: > 100000 nM
  TGI: 5250 nM
SK-MEL-5
  GI50: 219 nM
  CC50: 2240 nM
  TGI: 617 nM
MDA-MB-231
  GI50: > 100000 nM
  CC50: 100000 nM
  TGI: > 100000 nM
SF-295
  GI50: 603 nM
  CC50: > 100000 nM
  TGI: 5010 nM
A549
  GI50: 52.5 nM
  CC50: > 100000 nM
  TGI: 15500 nM
PC-3
  GI50: 324 nM
  CC50: 100000 nM
  TGI: 2240 nM
NCI-H522
  GI50: 148 nM
  CC50: 1820 nM
  TGI: 457 nM
COLO 205
  GI50: 158 nM
  CC50: 2950 nM
  TGI: 676 nM
EKVX
  GI50: 269 nM
  CC50: > 100000 nM
  TGI: 3630 nM
SF-539
  GI50: 427 nM
  CC50: 4070 nM
  TGI: 1620 nM
MDA-MB-468
  GI50: 204 nM
  CC50: 2140 nM
  TGI: 550 nM
MOLT-4
  GI50: 339 nM
  CC50: > 100000 nM
  TGI: 42700 nM
A498
  GI50: 468 nM
  CC50: < 7590 nM
  TGI: 2040 nM
LOX IMVI
  GI50: 331 nM
  CC50: 7410 nM
  TGI: 1410 nM
Nucleic Acid
  ΔTm: 20.9 °C
CCRF-CEM
  GI50: 427 nM
  CC50: > 100000 nM
  TGI: 2570 nM
HOP-92
  GI50: 263 nM
  CC50: > 100000 nM
  TGI: 955 nM
SNB-19
  GI50: 224 nM
  CC50: 89100 nM
  TGI: 871 nM
786-0
  GI50: 1910 nM
  CC50: 97700 nM
  TGI: 6760 nM
T47D
  GI50: 129 nM
  CC50: 25700 nM
  TGI: 776 nM
OVCAR-3
  GI50: 427 nM
  CC50: > 100000 nM
  TGI: 2450 nM
In vivo
  MTD: 50 mg/kg

## C[n+]1c2ccccc2c(NC2CCNCC2)c2[nH]c3ccccc3c21.[Cl-]
BT-549
  GI50: 2750 nM
  CC50: 57500 nM
  TGI: 16600 nM
UACC-62
  GI50: 200 nM
  CC50: 3630 nM
  TGI: 933 nM
NCI-H322M
  GI50: 372 nM
  CC50: > 100000 nM
  TGI: 12000 nM
SR
  GI50: 1700 nM
  CC50: > 100000 nM
  TGI: > 100000 nM
Malme-3M
  GI50: 1550 nM
  CC50: 20000 nM
  TGI: 4370 nM
UACC-257
  GI50: 5370 nM
  CC50: 81300 nM
  TGI: 24000 nM
HCT-15
  GI50: 23400 nM
  CC50: > 100000 nM
  TGI: > 100000 nM
NCI-H23
  GI50: 58.9 nM
  CC50: 10200 nM
  TGI: 646 nM
cells
  GI50: 120 nM
  CC50: 44700 nM
  TGI: 1120 nM
U-251
  GI50: 282 nM
  CC50: > 100000 nM
  TGI: 2950 nM
NCI-H460
  GI50: 245 nM
  CC50: 22400 nM
  TGI: 1620 nM
SW-620
  GI50: 1450 nM
  CC50: > 100000 nM
  TGI: 10700 nM
SK-MEL-5
  GI50: 302 nM
  CC50: 4680 nM
  TGI: 1320 nM
MDA-MB-231
  GI50: 1100 nM
  CC50: 52500 nM
  TGI: 9770 nM
SF-295
  GI50: 741 nM
  CC50: 77600 nM
  TGI: 10200 nM
A549
  GI50: 77.6 nM
  CC50: > 100000 nM
  TGI: 13800 nM
PC-3
  GI50: 1950 nM
  CC50: 97700 nM
  TGI: 10500 nM
NCI-H522
  GI50: 123 nM
  CC50: 3310 nM
  TGI: 692 nM
COLO 205
  GI50: 339 nM
  CC50: 14500 nM
  TGI: 2400 nM
EKVX
  GI50: 525 nM
  CC50: > 100000 nM
  TGI: 8320 nM
SF-539
  GI50: 1660 nM
  CC50: 28800 nM
  TGI: 7410 nM
MDA-MB-468
  GI50: 234 nM
  CC50: 6920 nM
  TGI: 1580 nM
MOLT-4
  GI50: 138 nM
  CC50: > 100000 nM
  TGI: > 100000 nM
A498
  GI50: 1620 nM
  CC50: 26300 nM
  TGI: 5130 nM
LOX IMVI
  GI50: 1700 nM
  CC50: 49000 nM
  TGI: 5250 nM
Nucleic Acid
  ΔTm: 19.9 °C
CCRF-CEM
  GI50: 457 nM
  CC50: 52500 nM
  TGI: 3020 nM
HOP-92
  GI50: 1150 nM
  CC50: > 100000 nM
  TGI: 6920 nM
SNB-19
  GI50: 275 nM
  CC50: > 100000 nM
  TGI: 2570 nM
786-0
  GI50: 3470 nM
  CC50: > 100000 nM
  TGI: 18200 nM
T47D
  GI50: 234 nM
  CC50: > 100000 nM
  TGI: 2340 nM
OVCAR-3
  GI50: 1450 nM
  CC50: 95500 nM
  TGI: 9550 nM
In vivo
  MTD: 25 mg/kg
